Results: PubChem BioAssay (NCI)
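The compound was tested at five concentrations on cells cultured in 96-well plates, with a 48-hour exposure period. At the GI50, growth is halved. Definition used: TGI = concentration required for complete inhibition of growth.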

Assays:
Assay in all cases: NCI-60 cell line screen, 48 h
[1] = system: SK-MEL-5 melanoma
[2] = system: UO-31 renal
[3] = system: HS 578T breast
[4] = system: CAKI-1 renal
[5] = system: M14 melanoma
[6] = system: BT-549 breast
[7] = system: SN12C renal
[8] = system: KM12 colon
[9] = system: MCF7 breast
[10] = system: RPMI-8226 leukemia
[11] = system: NCI-H226 lung
[12] = system: OVCAR-4 ovarian
[13] = system: A549 NSCLC
[14] = system: SK-OV-3 ovarian
[15] = system: SW-620 colon
[16] = system: EKVX NSCLC
[17] = system: SK-MEL-2 melanoma
[18] = system: K-562 leukemia
[19] = system: TK-10 renal
[20] = system: PC-3 prostate
[21] = system: RXF 393 renal
[22] = system: NCI/ADR-RES ovarian
[23] = system: HT29 colon
[24] = system: HCT-116 colon
[25] = system: OVCAR-5 ovarian
[26] = system: 786-0 renal
[27] = system: HCT-15 colon
[28] = system: SF-268 CNS
[29] = system: U251 CNS
[30] = system: UACC-62 melanoma
[31] = system: NCI-H23 lung
[32] = system: NCI-H460 lung
[33] = system: CCRF-CEM leukemia
[34] = system: SNB-19 CNS
[35] = system: NCI-H522 lung
[36] = system: OVCAR-8 ovarian
[37] = system: HOP-62 NSCLC
[38] = system: LOX IMVI melanoma
[39] = system: A498 renal
[40] = system: T-47D breast
[41] = system: MDA-MB-231 breast
[42] = system: SK-MEL-28 melanoma
[43] = system: SNB-75 CNS
[44] = system: MDA-MB-435
[45] = system: COLO 205 colon
[46] = system: HCC-2998 colon
[47] = system: ACHN renal

C#Cc1nc(/C=C\CCCCCCC(=O)NO)cs1
GI50 [1]: 2.38 µM | TGI [1]: 6.69 µM | GI50 [2]: 0.163 µM | TGI [2]: 0.318 µM | GI50 [3]: 2 µM | TGI [3]: 8.41 µM | GI50 [4]: 1.82 µM | TGI [4]: 4.27 µM | GI50 [5]: 3.65 µM | TGI [5]: 19.9 µM | GI50 [6]: 4.53 µM | TGI [6]: 42.5 µM | GI50 [7]: 4.02 µM | TGI [7]: > 100 µM | GI50 [8]: 3.25 µM | TGI [8]: 11.8 µM | GI50 [9]: 2.94 µM | TGI [9]: > 100 µM | GI50 [10]: 1.54 µM | TGI [10]: 4.96 µM | GI50 [11]: 2.81 µM | TGI [11]: 9.71 µM | GI50 [12]: 2.05 µM | TGI [12]: 5.77 µM | GI50 [13]: 2.94 µM | TGI [13]: 11.4 µM | GI50 [14]: 2.49 µM | TGI [14]: 7.44 µM | GI50 [15]: 1.69 µM | TGI [15]: 4.2 µM | GI50 [16]: 5.23 µM | TGI [16]: > 100 µM | GI50 [17]: 2.72 µM | TGI [17]: 8.53 µM | GI50 [18]: 2.1 µM | TGI [18]: > 100 µM | GI50 [19]: 1.68 µM | TGI [19]: 6.36 µM | GI50 [20]: 3.41 µM | TGI [20]: 20.1 µM | GI50 [21]: 1.72 µM | TGI [21]: 4.14 µM | GI50 [22]: 0.861 µM | TGI [22]: 5.83 µM | GI50 [23]: 2.6 µM | TGI [23]: 7.5 µM | GI50 [24]: 2.01 µM | TGI [24]: 7.74 µM | GI50 [25]: 2.63 µM | TGI [25]: 11.5 µM | GI50 [26]: 0.376 µM | TGI [26]: 12.6 µM | GI50 [27]: 3 µM | TGI [27]: 13.4 µM | GI50 [28]: 2.84 µM | TGI [28]: 7.64 µM | GI50 [29]: 1.86 µM | TGI [29]: 3.96 µM | GI50 [30]: 1.35 µM | TGI [30]: 3.29 µM | GI50 [31]: 0.964 µM | TGI [31]: 2.39 µM | GI50 [32]: 2.72 µM | TGI [32]: 16.4 µM | GI50 [33]: 0.329 µM | TGI [33]: 11.6 µM | GI50 [34]: 3.99 µM | TGI [34]: 23 µM | GI50 [35]: 0.177 µM | TGI [35]: 0.352 µM | GI50 [36]: 2 µM | TGI [36]: 8.77 µM | GI50 [37]: 2.67 µM | TGI [37]: 11.4 µM | TGI [38]: 0.0231 µM | GI50 [39]: 1.68 µM | TGI [39]: 3.3 µM | GI50 [40]: 1.62 µM | TGI [40]: 4.24 µM | GI50 [41]: 2.59 µM | TGI [41]: 6.25 µM | GI50 [42]: 3.69 µM | TGI [42]: 30.1 µM | GI50 [43]: 1.4 µM | TGI [43]: 4.27 µM | GI50 [44]: 2.75 µM | TGI [44]: 11.8 µM | GI50 [45]: 1.9 µM | TGI [45]: 3.82 µM | GI50 [46]: 5.58 µM | TGI [46]: 18.1 µM | GI50 [47]: 2.33 µM | TGI [47]: 6.46 µM
